The values that follow come from patent US6034101A, “Dosage form and method for administering drug” (ALZA Corporation, priority 1997, dated 2000).

The test system of data set [1] is patients. As to the kind of experiment: Therapeutic response and acquired tolerance in patients (general statements). In kind it is in vivo, human. Particulars: sustained-release dosage form with constant plasma concentration; applicant's finding.
Data set [2] has as its system patients. The following applies: cited from earlier work.
For the next data set, the system named is school children. As to the kind of experiment: Clinical study of Example 1: behavior, activity, mathematics scores and acute tolerance in school children (SKAMP, CLAM). In kind it is in vivo, human. As to the method: (§1) The CLAM Test is a behavior rating that indicates social conformity or rebellion as developed by Conners, Lonez, and Milch and SKAMP is a rating that also measures behavior as developed by Swanson and reported in Psychopharmacological Bulletin, Vol. 21, pp. 887-890 (1985).
(§2) The effect measurements in this study were: (1) observer ratings on SKAMP scale (during classroom time) and (2) performance on the computerized mathematics test. Each child was tested on the mathematics test before the study began, and based on this pre-test during the study, a mathematics test appropriate for each child's ability was given. The morning and evening parent CLAM assessments were used to identify unusual behaviors. The evening parent CLAM was used to determine the presence of treatment effects in the evening hours, particularly treatment effects on the time the child fell asleep, and whether the child's sleep was interrupted. All of the children also wore an activity monitor (Actigraph) which records the movements of the child throughout the day. The activity (number of movements per minute) is recorded electronically and modeled as a function of the drug effect.
The immediate release tablet and the sustained-release dosage form were compared to a sustained-release dosage form that administered methylphenidate in an ascending profile. The sustained-release ascending profile corresponds to administering 4.2 mg at zero hour, 1.1 mg at 1.5 hours, 1.1 mg at 2 hours, 1.2 mg at 2.5 hours, 1.2 mg at 3.0 hours, 1.3 mg at 3.5 hours, 1.3 mg at 4 hours, 1.5 mg at 4.5 hours, 1.5 mg at 5 hours, 1.8 mg at 5.5 hours, 1.8 mg at 6 hours, and 2.0 mg at 6.5 hours, to produce the sustained-ascending release dotted line profile seen in FIG. 2.
The accompanying figures present the results of the above-described study. In FIGS. 3, 4, and 5, the line with a clear circle denotes a placebo, the dark circle an immediate release dosage form administered twice a day, the dark squares a sustained release nonascending dosage profile, and the clear squares the sustained ascending release profile provided by this invention. The SKAMP Score and CLAM Score were defined earlier in the specification, and the times are as indicated on the figures. FIG. 3 denotes the observed behavior, FIG. 4 denotes the inattention overactivity, and FIG. 5 denotes the combined attention results of the study.

The conditions of data set [3]: immediate release form; cited from earlier work.
The subject of data set [4] is children with attention deficient hyperactivity disorder. Kind of data set: Clinical study of Example 2: behavior and combined attention, acquired tolerance in children with attention deficient hyperactivity disorder. Particulars: total 36 mg. In kind it is in vivo, human. As to the method:
as §1, §2
The results of a clinical study that comprises administering methylphenidate according to two distinct delivery programs are reported in this example. […]

Where [5] appears, read: sustained-nonascending dose, 20 mg, vs placebo.

On to `COC(=O)C(c1ccccc1)C1CCCCN1` (stereo not shown) [methylphenidate], for which, in the data set with patients [1], the “efficacy against acquired tolerance” value is “lacks efficacy particularly against acquired tolerance”. In addition, the tolerance result with patients [2] (5 mg dose twice a day) is recorded as “acquires tolerance”. Also, the “time to development of tolerance” value in the data set on patients [2] (after administration) is “within hours”. Also, in the data set with patients [2] (prior art sustained-release nonascending dosage form), the acute tolerance entry is “often develops an acute tolerance”. In the data set with school children (controlled-sustained ascending profile), the “therapeutic effect / tolerance” value was “desired therapeutic effect without tolerance”. Besides, the acute tolerance entry in the data set on school children (sustained-nonascending dose, 20 mg) is “development of acute tolerance”. Moreover, in the data set on school children (setting [5]), the activity result is recorded as “decrease in activity”, the inappropriate behavior result is on record as “lessening of inappropriate behavior” and the mathematical scores result is reported as “higher mathematical scores”. In addition, in data set [3], the half-life entry was “short half-life” and the onset result was “rapid onset”. In data set [4] (sustained-ascending program, FIG. 7), the “behavior, acquired tolerance” value is given as “absence of acquired tolerance”. Further, the “combined attention, acquired tolerance” value in data set [4] (sustained-ascending release, FIG. 8) is on record as “essentially free of developed tolerance”.
